#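 Method: 48-hour compound exposure of cells in 96-well plates, five concentrations, linear interpolation of endpoints. TGI is the concentration that stops growth completely.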
# Legend:
# Assay in all cases: growth of human tumour cells (NCI), 48 h
# [1] = tested on: OVCAR-4 ovarian
# [2] = tested on: DMS 114 small cell lung
# [3] = tested on: DMS 273 small cell lung
# [4] = tested on: OVCAR-8 ovarian
# [5] = tested on: SW-620 colon
# [6] = tested on: SN12C renal
# [7] = tested on: LOX IMVI melanoma
# [8] = tested on: HL-60(TB) leukemia
# [9] = tested on: 786-0 renal
# [10] = tested on: KM20L2 colon
# [11] = tested on: MOLT-4 leukemia
# [12] = tested on: SF-539 CNS
# [13] = tested on: UACC-62 melanoma
# [14] = tested on: KM12 colon
# [15] = tested on: NCI-H522 lung
# [16] = tested on: M19-MEL melanoma
# [17] = tested on: NCI-H23 lung
# [18] = tested on: EKVX NSCLC
# [19] = tested on: SNB-78 CNS
# [20] = tested on: SR leukemia
# [21] = tested on: HOP-62 NSCLC
# [22] = tested on: U251 CNS
# [23] = tested on: CAKI-1 renal
# [24] = tested on: HT29 colon
# [25] = tested on: SNB-75 CNS
# [26] = tested on: TK-10 renal
# [27] = tested on: RXF 393 renal
# [28] = tested on: ACHN renal
# [29] = tested on: MALME-3M melanoma
# [30] = tested on: SK-MEL-28 melanoma
# [31] = tested on: IGROV1 ovarian
# [32] = tested on: CCRF-CEM leukemia
# [33] = tested on: OVCAR-5 ovarian
# [34] = tested on: OVCAR-3 ovarian
# [35] = tested on: K-562 leukemia
# [36] = tested on: NCI-H460 lung
# [37] = tested on: HCT-15 colon
# [38] = tested on: M14 melanoma
# [39] = tested on: SK-MEL-5 melanoma
# [40] = tested on: HCT-116 colon
# [41] = tested on: A549 NSCLC
# [42] = tested on: UACC-257 melanoma
# [43] = tested on: UO-31 renal
# [44] = tested on: RPMI-8226 leukemia
# [45] = tested on: COLO 205 colon
# [46] = tested on: SF-268 CNS
# [47] = tested on: SNB-19 CNS
# [48] = tested on: LXFL 529 NSCLC
# [49] = tested on: HOP-92 NSCLC
# [50] = tested on: SK-OV-3 ovarian
# [51] = tested on: NCI-H226 lung
# [52] = tested on: SF-295 CNS
# [53] = tested on: SK-MEL-2 melanoma
# [54] = tested on: A498 renal
# [55] = tested on: XF 498 CNS
# [56] = tested on: HCC-2998 colon
# [57] = tested on: DLD-1 colon
compound,measurement,setting,value
COc1ccc2ccccc2c1CN1CCOCCOCCN(Cc2c(OC)ccc3ccccc23)CCOCCOCC1,TGI,[1],> 100 µM
same,TGI,[2],> 100 µM
same,TGI,[3],70.5 µM
same,TGI,[4],> 100 µM
same,TGI,[5],> 94.7 µM
same,TGI,[6],> 100 µM
same,TGI,[7],> 100 µM
same,TGI,[8],53.4 µM
same,TGI,[9],> 46.4 µM
same,TGI,[10],> 100 µM
same,TGI,[11],> 90.1 µM
same,TGI,[12],> 68.8 µM
same,TGI,[13],> 100 µM
same,TGI,[14],> 100 µM
same,TGI,[15],> 89.8 µM
same,TGI,[16],> 100 µM
same,TGI,[17],> 100 µM
same,TGI,[18],> 100 µM
same,TGI,[19],> 100 µM
same,TGI,[20],> 100 µM
same,TGI,[21],> 100 µM
same,TGI,[22],> 100 µM
same,TGI,[23],> 100 µM
same,TGI,[24],> 44 µM
same,TGI,[25],> 100 µM
same,TGI,[26],> 100 µM
same,TGI,[27],> 100 µM
same,TGI,[28],> 100 µM
same,TGI,[29],> 63.9 µM
same,TGI,[30],> 65 µM
same,TGI,[31],> 100 µM
same,TGI,[32],> 100 µM
same,TGI,[33],> 100 µM
same,TGI,[34],> 100 µM
same,TGI,[35],> 100 µM
same,TGI,[36],> 100 µM
same,TGI,[37],> 100 µM
same,TGI,[38],32.5 µM
same,TGI,[39],> 53.6 µM
same,TGI,[40],> 59 µM
same,TGI,[41],> 100 µM
same,TGI,[42],65.5 µM
same,TGI,[43],> 100 µM
same,TGI,[44],73.2 µM
same,TGI,[45],> 100 µM
same,TGI,[46],> 100 µM
same,TGI,[47],> 100 µM
same,TGI,[48],> 100 µM
same,TGI,[49],> 70 µM
same,TGI,[50],> 100 µM
same,TGI,[51],> 100 µM
same,TGI,[52],> 100 µM
same,TGI,[53],97.4 µM
same,TGI,[54],> 100 µM
same,TGI,[55],> 63.2 µM
same,TGI,[56],35.3 µM
same,TGI,[57],> 100 µM
